Values of other authors as cited in patent US7427608B2, “Protection against and treatment of hearing loss” (The Research Foundation of State University of New York, priority 2001, dated 2008).

Target: p56 lck (Homo sapiens, UniProt P06239)
Settings: analyzed with the tyrosine kinase p56^lck; cited from earlier work

Chain of p56 lck (P06239 whole entry, species assumed): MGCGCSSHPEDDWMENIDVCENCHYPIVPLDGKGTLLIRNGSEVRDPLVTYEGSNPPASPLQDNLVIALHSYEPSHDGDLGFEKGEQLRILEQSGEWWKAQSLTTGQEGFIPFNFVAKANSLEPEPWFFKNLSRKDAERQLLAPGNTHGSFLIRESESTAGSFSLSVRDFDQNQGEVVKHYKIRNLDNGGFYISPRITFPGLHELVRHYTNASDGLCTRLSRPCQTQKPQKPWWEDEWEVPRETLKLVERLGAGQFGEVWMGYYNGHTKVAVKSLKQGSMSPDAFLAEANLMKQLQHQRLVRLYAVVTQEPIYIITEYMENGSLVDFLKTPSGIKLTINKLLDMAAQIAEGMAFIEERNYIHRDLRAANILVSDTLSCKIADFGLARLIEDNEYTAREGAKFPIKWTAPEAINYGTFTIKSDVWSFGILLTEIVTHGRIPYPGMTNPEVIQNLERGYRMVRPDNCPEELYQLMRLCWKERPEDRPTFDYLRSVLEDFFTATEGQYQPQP

## Cc1cc(O)c2c(c1)C(=O)c1cc(O)cc(O)c1C2=O [Emodin]
  competition with ATP: ATP-competitive
